From the supplement of paper PMC11997997

What was measured:
[1] = system: Mycobacterium tuberculosis CDC1551 (intracellular, in murine BMDM); test: area under intracellular growth-inhibition dose-response curve (AUC (% inhibition x dose, relative)); higher = more potent; conditions: duration: 6 days; dose range: 0.13-80 uM, 8 points
Method in brief: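 The value is the area under the growth-inhibition dose–response curve, calculated in GraphPad Prism. Primary murine bone marrow-derived macrophages were seeded in 384-well opaque plates and, 24 h later, infected for 1 h with luciferase-expressing M. tuberculosis CDC1551 at multiplicity of infection 1. Cells were then exposed for 6 days to an 8-dose, 2.5-fold series (final 80–0.13 μM). Growth was read with the Bright-Glo luciferin assay and normalised to a reference drug control and to the lowest-concentration wells.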

[2] = system: murine bone marrow-derived macrophages; test: area under cytotoxicity dose-response curve (AUC (% cytotoxicity x dose, relative)); higher = more cytotoxic; conditions: duration: 6 days; dose range: 0.13-80 uM, 8 points
Method in brief: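 Values are the area under the cytotoxicity dose–response curve, calculated with GraphPad Prism version 10. Primary murine bone marrow-derived macrophages were exposed to final concentrations of 80–0.13 μM for 6 days, and viability was read by CellTiter-Glo luminescence with normalisation to vehicle and positive control wells.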

Compound	area under intracellular growth-inhibition dose-response curve [1]	area under cytotoxicity dose-response curve [2]
O=C(Cn1nnc(-c2ccc(F)cc2)n1)Nc1cccc(S(=O)(=O)N2CCCC2)c1	73.7	11.8
CCN(CC)CCN(C(=O)C1=COCCO1)c1nc2cc(C)cc(C)c2s1.Cl	227	22.7
Cc1ccc(S(=O)(=O)N2CCOCC2)cc1C(=O)OCC(=O)NC1CC1	97.3	7.09
CC1CCN(C(=O)C2CCN(c3nnc(-n4cccc4)s3)CC2)CC1	234	< 0
CCCc1cc(C(N)=S)ccn1	215	8.35
Cc1nc2ccccn2c1C(=O)NCc1ccc2c(c1)OCO2	203	38.9
Cc1ccc(C(=O)Sc2cccccc2=O)cc1	< 0	143
CCOc1ccc(NC(=O)CCc2nnc3ccc(N4CCC(C)CC4)nn23)cc1	30.4	65.6
O=C(CSc1ccccc1F)NNC(=O)c1ccncc1	230	38.8
CC1(C)C2CCC1(C)C(NC(=O)/C=C/c1ccccc1)C2 (configuration not stated)	242	58.5
O=C(Nc1ccc(NC(=S)NC(=O)c2cccs2)cc1)c1ccccc1	244	33.4
CCN1C(=O)C(O)(C2COC(C)(C)CC2=O)c2ccccc21 (configuration not stated)	31.5	41
CC(NC(=O)COC(=O)c1ccc(N2CCCC2=O)cc1)c1ccc(F)cc1 (configuration not stated)	37.5	< 0
CCc1ccc(C(=O)NC2CCCCC2)s1	239	42.5
CN(Cc1ccccc1)C(=O)CCc1ccccc1	181	< 0
COc1ccc(CN(C)C(=O)COC(=O)c2cc([N+](=O)[O-])ccc2N2CCCC2)c(OC)c1OC	31	66.2
CCCCCNC(=O)CCc1ccccc1	130	< 0
CC(=O)c1c(C)[n+]([O-])c2cc(F)c(F)cc2[n+]1[O-]	45.9	13.7
O=C(COC(=O)C1CC2CCCC(C1)C2=O)Nc1ccc(F)c(Cl)c1 (configuration not stated)	90.3	44.5
Cc1cc2oc(=O)cc(-c3ccccc3)c2c(C)c1-c1ccc(CO)cc1	271	< 0
Cc1cccc(N2CCN(Cc3ccc([N+](=O)[O-])o3)CC2)c1C	221	38.8

Compound	area under intracellular growth-inhibition dose-response curve [1]	area under cytotoxicity dose-response curve [2]
C/C(=N\NC(=O)c1ccncc1)c1cccnc1	129	90.7
O=S(=O)(Nc1ccc(S(=O)(=O)Nc2nccs2)cc1)c1ccc2c(c1)OCCO2	77.8	< 0
O=C(N/N=C/c1ccccc1Cl)c1ccncc1	234	69.2
CN(C)S(=O)(=O)c1ccc(C(=O)OCC(=O)Nc2ccc3c(c2)OCO3)cc1	11.2	38.4
O=C(NCc1ccncc1)c1cccc(S(=O)(=O)N2CCc3ccccc32)c1	< 0	39.9
CCCCCCCn1c(=O)c(C(=O)Nc2cnccn2)c(O)c2ccccc21	66	7.68
CS(=O)(=O)N1CCN(C(=O)CCC2CCCC2)CC1	159	43.1
CNC(=S)Nc1ccc(OCc2ccccc2)cc1	242	75.3
COc1ccc(OC)c2nc3c(cc12)CCC3	211	23.1
CC[C@H]1OC(=O)[C@H](C)[C@@H](O[C@H]2C[C@@](C)(OC)[C@@H](O)[C@H](C)O2)[C@H](C)[C@@H](O[C@@H]2O[C@H](C)C[C@H](N(C)C)[C@H]2O)[C@](C)(O)C[C@@H](C)C(=NOCOCCOC)[C@H](C)[C@@H](O)[C@]1(C)O	204	7.74
CC(=O)Nc1ccc(S(=O)(=O)Nc2ccc(N3CCCCC3)cc2)cc1	27.8	16.6
O=C(COC(=O)c1ccc([N+](=O)[O-])o1)Nc1ccc(F)cc1	144	< 0
CCN(CC)S(=O)(=O)c1ccc2c(c1)c(=O)c(C(=O)NCCc1ccccc1)cn2C	157	22.5
NC(=S)N/N=C/c1ccc(-n2nncc2-c2ccc(Cl)cc2)cc1	216	47.7
Cc1ccc(C)c(NC(=O)CN(C)C(=O)c2ccc(S(=O)(=O)N3CCCCCC3)cc2)c1	30.7	< 0
CSc1nnc(-c2ccc(NC(N)=S)cc2)o1	154	96.1
CCOc1ccc2oc(C(=O)OCC(=O)N3C(C)CCCC3C)c(C)c2c1 (configuration not stated)	5.04	105
CCC[C@@H](CN1CCC[C@H]1CN1C(N)=NC[C@H]1CC(C)C)N1C[C@@H]([C@H](C)CC)N(CCc2ccc(Cl)c(Cl)c2)C1=N	129	13.4
CC(=O)Nc1ccc(Sc2ccc([N+](=O)[O-])o2)cc1	108	21.3
CCCn1c(-c2cccs2)nc2ccccc21	103	< 0
O=C(COC(=O)Cc1cccs1)NCC(=O)Nc1ccc(F)cc1	< 0	45.1

Compound	area under intracellular growth-inhibition dose-response curve [1]	area under cytotoxicity dose-response curve [2]
C[C@H]1COc2c(N3CCN(C)CC3)c(F)cc3c(=O)c(C(=O)O)cn1c23	200	137
Cc1nn(-c2ccccc2)cc1/C=N/NC(N)=S	274	24.4
S=C(Nc1ccc(Oc2ccccc2)cc1)NC1CCCCCC1	155	210
Cc1ccc(C)c(NC(=N)Nc2nc(C)cc(C)n2)c1	218	< 0
Cc1ccccc1N1CCN(Cc2ccc([N+](=O)[O-])o2)CC1	263	< 0
CN(C)[C@@H]1C(=O)C(C(N)=O)=C(O)[C@@]2(O)C(O)=C3C(=O)c4c(O)cccc4[C@@](C)(O)C3[C@H](O)C12.Cl (some centres not stated)	271	62.5
CC1CCN(C(=O)C2CCC(CNc3c(N4CCCCC4)c(=O)c3=O)CC2)CC1 (configuration not stated)	87.1	8.86
CC(=O)N1CCN(c2ccc(NC(=O)c3ccc([N+](=O)[O-])o3)cc2Cl)CC1	49.4	88.8
Cc1ccc(/C=N/NC(=O)C2COc3ccccc3O2)s1 (configuration not stated)	196	< 0
CCCc1cc(C(=O)NC2CCCCC2)no1	232	108
CCCCCc1ccc(OCCC[n+]2ccccc2)c(CCCCC)c1.[Cl-]	137	53
c1ccc(Cc2nnc(-c3ccccc3)o2)cc1	264	39.3
O=C(NCC1CCCCC1)c1ccc(Br)o1	274	< 0
Cl.N=C(NCCCCCCNC(=N)NC(=N)Nc1ccc(Cl)cc1)NC(=N)Nc1ccc(Cl)cc1	43	120
O=C(NC1CCCCCCC1)c1ccc(Br)o1	251	38.5
CC(=O)Nc1cccc(/C(C)=N/NC(N)=S)c1	235	< 0
Cc1cc(C(F)F)nn1CC(=O)NC1C(=O)N2C(C(=O)O)=C(CSc3nnnn3C)CSC12 (configuration not stated)	86.3	110
CCCCNC(=S)Nc1ccc2c[nH]nc2c1	190	37.5
CSc1ccc(C(=O)C2CCCN(C(=O)c3ccc4c(c3)no[n+]4[O-])C2)cc1 (configuration not stated)	191	64.7
